In US20230257715A1, “COMPOSITIONS AND METHODS FOR REGULATING ENTEROENDOCRINE CELL DIFFERENTIATION AND USES THEREOF” (The Children's Medical Center Corporation, priority 2020, published 2023):

B1: betacellulin (protein, UniProt P35070 32-111, looked up)
Betacellulin: DGNSTRSPETNGLLCGDPEENCAATTTQSKRKGHFSRCPKQYKHYCIKGRCRFVVAEQTPSCVCDEGYIGARCERVDLFY
modifications: Betacellulin
notes: a ligand of both EGFR and the ErbB4 receptor

Columns and labels:
human duodenal enteroids = assay: qPCR analysis of enteroendocrine and lineage markers in enteroids; type: cell-based; details: for EE cell marker expression on inclusion in DM: compared with GM and DM without betacellulin or PF, qPCR
From the text: For differentiation, enteroids were passaged and grown in GM for two days, to allow for ISC expansion, after which the organoids were transitioned to tissue-specific differentiation media (DM) with additional small molecules added as described (TABLE 1A and TABLE 1B). Media was changed every two days, with Tubastatin A being removed after the second day of differentiation. Enteroids and rectoids were taken for analysis after 14 days.
Total RNA was purified from individual wells using TRI®Reagent (Sigma) and the Direct-zol™ RNA kit (Zymo Research), following the manufacturer's protocol. RNA concentration was determined using a NanoDrop™ 1000 spectrophotometer (Life Technologies). RNA was treated with DNAse (Promega) and reverse transcribed using the High-Capacity cDNA Reverse Transcription Kit (Life Technologies). Gene expression analysis was then performed by Real Time quantitative PCR (qPCR) using a QuantStudio 6 Flex thermocycler (Life Technologies). Taqman primers from Life Technologies (TABLE 3) were used. 18S transcripts were used as the internal control and data were expressed using the 2^−ddCt method with Ct limit of 40. Fold change, unless otherwise stated, was compared to total RNA derived from adult whole mucosal tissue biopsies.

[1] = literature (Sathyapalan et al. 2010); cited from earlier work
GATA4-NKX2-5 = details: in vitro, literature (Valimaki et al. 2017); cited from earlier work

Molecule | EE cell marker expression on inclusion in DM (human duodenal enteroids) | EE lineage marker mRNA expression when added to DM (qPCR) (human duodenal enteroids; compared to enteroids grown in G2D12, FIG. 2.1A) | human serum GIP levels [1] | GATA4-NKX2-5 transcriptional activity (GATA4-NKX2-5)
Nc1ccc(-c2cnc(N)c(-c3ccc(Cl)cc3)c2)cn1 [PF, PF06260933] | increased expression of EE cell markers |  |  | 
Cc1c(C(=O)NN2CCCCC2)nn(-c2ccc(Cl)cc2Cl)c1-c1ccc(Cl)cc1 [Rim, rimonabant] |  | induced expression of multiple EE lineage markers (CHGA, NEUROD1, NEUROG3, SST, and GIP) when added to DM, with Rim having a much larger effect | increase human serum GIP levels | increase the activity of GATA4-NKX2-5 transcriptional activity in vitro
B1 | increased expression of EE cell markers |  |  | 
